Values quoted from earlier work, collected in patent publication US10307140B2, “Device for detection of hepatocellar carcinoma (HCC) using an octanoate breath test” (EXALENZ BIOSCIENCE LTD., priority 2011, dated 2019).
Where two headings read alike, the source gives them in different places.

Tested on: liver mitochondria
Conditions: HCC patients

change of ketoisocaproate decarboxylation (after RFA, P<0.05): −27% | change of ketoisocaproate decarboxylation (after TACE): unaffected
Compound: CC(C)CC(=O)C(=O)O [KICA, ketoisocaproate]
